In the supplement of paper PMC10307832:

Tests used:
Experiment in all cases: relative viability (nuclei count vs DMSO), 5 days (fraction); higher = more cells survive
Decitabine + Dasatinib = compound: Nc1ncn([C@H]2C[C@H](O)[C@@H](CO)O2)c(=O)n1 [Decitabine] + Cc1nc(Nc2ncc(C(=O)Nc3c(C)cccc3Cl)s2)cc(N2CCN(CCO)CC2)n1 [Dasatinib] (partner 0.075 µM)
In short: (§1)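 Cells from lung cancer lines were seeded into 1536-well plates and, one day later, dosed by pin tool. Treatments were either a single drug or a fixed dose of an anchor drug with five library-drug doses (not always all listed) in √10 steps. After 5 days, nuclei were stained in a one-step fixation (final 0.05% Triton X-100, 1% formaldehyde, 1 ug/ml Hoechst) and counted on 4× images, and relative viability is the treated-to-vehicle nuclei ratio, as the median of duplicate plates.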

Decitabine + AZD7762 = compound: Nc1ncn([C@H]2C[C@H](O)[C@@H](CO)O2)c(=O)n1 [Decitabine] + NC(=O)Nc1cc(-c2cccc(F)c2)sc1C(=O)N[C@H]1CCCNC1 [AZD7762] (partner 0.2 µM)
In short: as §1

Decitabine + Vorinostat = compound: Nc1ncn([C@H]2C[C@H](O)[C@@H](CO)O2)c(=O)n1 [Decitabine] + O=C(CCCCCCC(=O)Nc1ccccc1)NO [Vorinostat] (partner 1 µM)
In short: as §1

[1] = compound: O=C(C[C@H]1NCCC[C@@H]1O)Cn1cnc2cc(Br)c(Cl)cc2c1=O (racemic) [Halofuginone] + CC(=O)c1c(C)c2cnc(Nc3ccc(N4CCNCC4)cn3)nc2n(C2CCCC2)c1=O [Palbociclib] (partner 0.5 µM)
In short: as §1

Cell Line	relative viability (Decitabine + Dasatinib; first compound 0.04 µM)	relative viability (Decitabine + Dasatinib; first compound 0.1265 µM)	relative viability (Decitabine + Dasatinib; first compound 0.4 µM)	relative viability (Decitabine + Dasatinib; first compound 1.265 µM)	relative viability (Decitabine + Dasatinib; first compound 4 µM)	relative viability (Decitabine + AZD7762; first compound 0.1265 µM)	relative viability (Decitabine + AZD7762; first compound 0.4 µM)	relative viability (Decitabine + AZD7762; first compound 1.265 µM)	relative viability (Decitabine + AZD7762; first compound 4 µM)	relative viability (Decitabine + Vorinostat; first compound 0.1265 µM)	relative viability (Decitabine + Vorinostat; first compound 0.4 µM)	relative viability (Decitabine + Vorinostat; first compound 1.265 µM)	relative viability (Decitabine + Vorinostat; first compound 4 µM)	relative viability ([1]; first compound 0.001 µM)	relative viability ([1]; first compound 0.003162 µM)	relative viability ([1]; first compound 0.01 µM)	relative viability ([1]; first compound 0.03162 µM)	relative viability ([1]; first compound 0.1 µM)	relative viability (Decitabine + AZD7762; first compound 0.04 µM)	relative viability (Decitabine + Vorinostat; first compound 0.04 µM)
EMC-BAC-2	0.334	0.343	0.343	0.284	0.26	1.15	0.908	0.911	0.846	0.456	0.538	0.414	0.43	0.545	0.531	0.506	0.536	0.37		
EPLC-272H		0.297	0.118	0.232	0.144	0.195		0.158	0.221	0.281		0.221	0.215	0.306	0.33	0.339	0.361	0.314	0.255	0.369
H3255		0.341	0.251	0.351	0.252	0.876	0.617	0.682	0.601	0.846	0.638	0.487	0.76	0.322	0.323	0.346	0.309	0.351	0.662	
HARA	0.311	0.261	0.232	0.257	0.138	0.464	0.165	0.203	0.315	0.377	0.345	0.213	0.214	0.382	0.266	0.234	0.264	0.216	0.353	0.507
